Like-named read-outs stand apart in the source and are kept apart here.
Columns and labels:
[1] = tested on: HIV-1 strain A018A in MAGI-CCR-5 cells; format: cell-based; settings: for mean positive cell count: +HIV-1; for inhibition of MAGI-CCR-5 cell early infection events: compared to HIV-1 alone
NF-κB = assay: IL-18-induced NF-κB expression; format: cell-based; settings: compared with IL-18 alone (lane 4)
[2] = tested on: HIV-1 production in U1 cells; assay: U1 monocytic cell assay, IL-6-induced HIV-1 p24 antigen; format: cell-based; settings: for p24 antigen: 100 ng/ml IL-6
[3] = tested on: HIV-1 production in U1 cells; assay: U1 monocytic cell assay, NaCl (hyperosmolarity)-induced HIV-1 p24 antigen; format: cell-based
[4] = tested on: HIV-1 production in U1 cells; assay: U1 monocytic cell assay, IL-18-induced HIV-1 p24 antigen; format: cell-based; settings: for p24 production: 0.5 nM IL-18, 48 hr
Excerpt: U1 monocytic cell assay. U1 cells are obtained from the AIDS Research and Reference Reagent Program, National Institute of Allergy and Infectious Diseases, NIH. U1 cells are maintained in T-175 polystyrene flasks (Falcon, Becton Dickinson, Franklin Lakes, N.J.) in medium and used when in log phase growth. Cells are counted in a hemacytometer, examined for viability by Trypan blue exclusion (>95% for all experiments) and resuspended in fresh medium at 2×10^6 per ml. Two-hundred fifty […] are added to wells of 24-well polystyrene tissue culture plates (Falcon), followed by the addition of medium or AAT to produce the final concentration to be tested in a volume of […]. After 1.0 hr of incubation (37° C., 5% CO2), 50 ml of medium (control) or stimulus diluted in medium are added to wells to produce the final concentration of stimulus to be tested. The final culture volumes are […] and contained 1×10^6 cells per ml. After 48 hr of incubation (37° C. and 5% CO2) 50 ml of 10% (vol/vol) Triton-X-100 (Fisher Scientific, Fair Lawn, N.J.) is added to each culture (final concentration of 1% vol/vol), and cultures are frozen and thawed once. This is followed by assay for HIV-1 p24 antigen by ELISA with a lower limit of detection of 31 pg/ml (NCI-Frederick Cancer Research and Development Center, Frederick, Md.). The disruption of cells due to the addition of Triton-X-100 and the freeze-thaw cycle produced cell lysates and enabled assessment of total (secreted and cell-associated) production of p24 antigen.
Data are presented as means±SEM. Group means are compared by ANOVA using Fisher's least significant difference. For data expressed as percent change, the values for p24 in control cultures (medium alone) are subtracted from those for each culture-containing stimulus. The p24 concentrations in cultures conducted in the presence of stimulus alone are set at 100%. Percent p24 in cultures containing stimulus and AAT are calculated by dividing the measured p24 by that present in cultures containing stimulus alone. The resultant fraction is expressed as a percent.
The U1 cell line is derived from human monocytic U937 cells into which 2 copies of HIV-1 provirus are incorporated into host genome. Exposing U1 cells to pro-inflammatory cytokines such as IL-18, IL-1, IL-6 and TNF, phorbol esters or hyperosmolarity results in the induction of HIV-1 as assessed by p24 antigen. Stimulation of U1 cells with 0.5 nM IL-18 induced large amounts of p24 antigen after 48 hr of incubation in 3 separate experiments. U1 cells cultured in medium alone (control) contained a mean of 41.3±11.5 pg/ml p24 antigen, which is increased 150-fold to 6,235±1,775 pg/ml p24 following stimulation with IL-18. […] At 1, 2 and 3 mg/ml AAT, the percent reductions observed compared to stimulation with IL-18 alone are 65±1.8, 93±3.0 and 98±1%, respectively.

[5] = tested on: HIV-1 production in U1 cells; assay: U1 monocytic cell assay, LPS-induced HIV-1 p24 antigen; format: cell-based; settings: for p24 antigen: 500 ng/ml LPS, 48 hrs
U1 cells = assay: U1 cell proliferation and viability (hemacytometer, trypan blue exclusion); format: cell-based, human; settings: 5 mg/ml AAT, 48 hrs
Protocol: To evaluate the effect of AAT on U1 cell proliferation and viability, 3 experiments are performed in the presence or absence of 5 mg/ml AAT. U1 cells are added at 1×10^6 cells per ml and cultured for 48 hrs. Following incubation, cells are quantified using a hemacytometer. The mean±SEM cell concentrations in control and AAT-containing cultures are 2.5×10^6±0.5×10^6 and 2.4×10^6±0.3×10^6 respectively. […] For all cultures, cell viability by trypan blue exclusion is >95%. The lack of toxicity is illustrated in FIG. 13.

[6] = tested on: HIV-1 production in U1 cells; assay: U1 monocytic cell assay, TNF-induced HIV-1 p24 antigen; format: cell-based; settings: for TNF-induced p24 antigen: 3.0 ng/ml TNF

AAT: Alpha-1-antitrypsin purified from the blood of healthy volunteers to single-band homogeneity
mean positive cell count ([1]; AAT 0.1 mg/ml): 74±13
mean positive cell count ([1]; AAT 1.0 mg/ml): 75±17
mean positive cell count ([1]; AAT 3.0 mg/ml): 45±12
mean positive cell count ([1]; AAT 4.0 mg/ml): 28±9
mean positive cell count ([1]; AAT 5.0 mg/ml): 21±12
inhibition of MAGI-CCR-5 cell early infection events ([1]; AAT 2.0 mg/ml): 23%
inhibition of MAGI-CCR-5 cell early infection events ([1]; AAT 3.0 mg/ml): 41%
inhibition of MAGI-CCR-5 cell early infection events ([1]; AAT 4.0 mg/ml): 66%
inhibition of MAGI-CCR-5 cell early infection events ([1]; AAT 5.0 mg/ml): 76%
IL-18-induced NF-κB expression (NF-κB): reduced
p24 antigen ([2]; AAT 0.1 mg/ml): 6,228±2,129 pg/ml
p24 antigen ([2]; AAT 0.5 mg/ml): 3,992±1,987 pg/ml
p24 antigen ([2]; AAT 1 mg/ml): 3,850±1,943 pg/ml
p24 antigen ([2]; AAT 2 mg/ml): 2,597±1,253 pg/ml
p24 antigen ([2]; AAT 3 mg/ml): 2,155±1,085 pg/ml
p24 antigen ([2]; AAT 4 mg/ml): 1,838±881 pg/ml
p24 antigen ([2]; AAT 5 mg/ml): 1,213±668 pg/ml
mean percent reduction of IL-6-induced p24 ([2]; AAT 3 mg/ml): 80%
mean percent reduction of IL-6-induced p24 ([2]; AAT 4 mg/ml): 88%
mean percent reduction of IL-6-induced p24 ([2]; AAT 5 mg/ml): 100%
NaCl-induced 26-fold increase in p24 concentration ([3]; 60 mM NaCl, 5 mg/ml AAT): completely inhibited
mean p24 level ([3]; 60 mM NaCl, AAT 0.1 mg/ml): 11,054±3,231 pg/ml
mean p24 level ([3]; 60 mM NaCl, AAT 0.5 mg/ml): 7,363±485 pg/ml
mean p24 level ([3]; 60 mM NaCl, AAT 1.0 mg/ml): 5,657±48 pg/ml
mean p24 level ([3]; 60 mM NaCl, AAT 3.0 mg/ml): 1,919±594 pg/ml
mean p24 level ([3]; 60 mM NaCl, AAT 4.0 mg/ml): 425 ± 32 pg/mL
mean p24 level ([3]; 60 mM NaCl, AAT 5.0 mg/ml): 266 ± 26 pg/mL
percent inhibition of NaCl-induced p24 ([3]; AAT 3.0 mg/ml): 76%
percent inhibition of NaCl-induced p24 ([3]; AAT 4.0 mg/ml): 98.3%
percent inhibition of NaCl-induced p24 ([3]; AAT 5.0 mg/ml): 100%
p24 production ([4]; AAT 0.1 mg/ml): 6,879±207 pg/ml
p24 production ([4]; AAT 0.5 mg/ml): 3,687±968 pg/ml
p24 production ([4]; AAT 1 mg/ml): 2,029±625 pg/ml
p24 production ([4]; AAT 2 mg/ml): 452 ± 209 pg/mL
p24 production ([4]; AAT 3 mg/ml): 179 ± 79 pg/mL
percent reduction of p24 compared to IL-18 alone ([4]; AAT 1 mg/ml): 65±1.8%
percent reduction of p24 compared to IL-18 alone ([4]; AAT 2 mg/ml): 93±3.0%
percent reduction of p24 compared to IL-18 alone ([4]; AAT 3 mg/ml): 98±1%
range of inhibition of HIV-1 production in U1 cells ([4]; all stimuli tested (IL-18, IL-6, TNF, LPS, hyperosmolarity)): 73-100%
p24 antigen ([5]; AAT 1 mg/ml): 1,108±241 pg/ml
p24 antigen ([5]; AAT 2 mg/ml): 913 ± 287 pg/mL
p24 antigen ([5]; AAT 5 mg/ml): 626 ± 257 pg/mL
inhibition of LPS-induced p24 production ([5]; AAT 3 mg/ml): 71%
inhibition of LPS-induced p24 production ([5]; AAT 4 mg/ml): 90%
inhibition of LPS-induced p24 production ([5]; AAT 5 mg/ml): 86%
cell viability by trypan blue exclusion (U1 cells): > 95%
mean±SEM cell concentration after culture (U1 cells; 1×10^6 cells per ml added initially): 2.4×10^6±0.3×10^6 cells per ml
TNF-induced p24 antigen ([6]; AAT 0.1 mg/ml): 16,405±8,449 pg/ml
TNF-induced p24 antigen ([6]; AAT 0.5 mg/ml): 16,863±7,718 pg/ml
TNF-induced p24 antigen ([6]; AAT 1 mg/ml): 15,328±7,129 pg/ml
TNF-induced p24 antigen ([6]; AAT 2 mg/ml): 12,566±4,981 pg/ml
TNF-induced p24 antigen ([6]; AAT 3 mg/ml): 9,341±2,730 pg/ml
TNF-induced p24 antigen ([6]; AAT 4 mg/ml): 9,091±3,436 pg/ml
TNF-induced p24 antigen ([6]; AAT 5 mg/ml): 6,868±2,737 pg/ml
mean percent reduction in TNF-induced p24 antigen ([6]; AAT 3 mg/ml): 56%
mean percent reduction in TNF-induced p24 antigen ([6]; AAT 4 mg/ml): 60%
mean percent reduction in TNF-induced p24 antigen ([6]; AAT 5 mg/ml): 73%
